Tests used:
[1] = system: mice CD-1 males; test: Stimulating activity: effect on loss of straightening reflex (sleep) induced by ethanol in mice; format: in vivo; conditions: caffeine 60 mg/kg
Source text: The antioxidant and anti-radical activity was studied on decoctions 1 and 2, respectively, by testing the decolorization of the radical cation ABTS^• (2.2′-azino-bis-3-ethylbenzothiazoline-6-sulphonic acid) (Re et al.—Free Rad. Biol. Med. 26: 1231, 1999) and by testing the neutralization of the radical 1,1-diphenyl-2-picrylhydrazyl (DPPH^•) (Brand-Williams et al.—Food Sci. Technol. 28: 25, 1995). Finally, decoctions 1 and 2 were studied for potential stimulating activity, verifying the effect on sleep induced by ethanol in mice according to the method reported by Yacoubi et al. (Yacoubi et al. —Neuropharmacology 45: 977, 2003).
The stimulating activity of the decoctions of olive leaves was evaluated on the basis of the reduction of the hypnotic effect induced by ethanol in the mice (Yacoubi et al.—Neuropharmacology 45: 977, 2003). The animals were housed in groups of 5 and kept for at least a week in the same place where the test was carried out, at a constant temperature (23±1° C.) and relative humidity (50-60%), with a fixed artificial light cycle (07.00-19.00). The experiment was carried out in conformity with the laws in force that regulate the use of animals for scientific purposes (Italian Legislative Decree 116 of 27 Jan. 1992 and the Directives of the European Communities Council of 24 Nov. 1986/86/609/EEC).
At the moment of the experiment, each animal was positioned individually in a cage. The lyophilized decoctions, dissolved in water, were administered to the mice (dose: 120 mg/kg; volume of solution administered: 10 ml/kg) by means of gastric intubation, 30 minutes before the inter-peritoneal injection of an aqueous composition of ethanol at 20% (v/v; 4 g/kg). The control animals were administered 10 ml/kg of physiological solution. The induction of ethanol induced sedation in the animals, with the loss of the straightening reflex. In every animal both the duration of the latency phase that elapsed between the injection of the ethanol and the loss of the straightening reflex, and the duration of the loss of the straightening reflex were measured. The stimulating activity was evaluated on the basis of both the increase in the latency phase and also on the reduction in the duration of the loss of the straightening reflex. The effect was compared to that of caffeine, at a dose of 60 mg/kg. Each treatment group consisted of 10 animals.
The values of IC50 were calculated on the basis of the linear regression of the straight lines that put the logarithm of the concentrations tested in relation to the reduction of the absorbance measured, using the appropriate function of an electronic spreadsheet. The in vivo data were analyzed according to the Student's t-test, accepting as significant the values of p<0.05.
The stimulating activity of decoctions 1 and 2 was evaluated in the mice, after oral administration of 120 mg/kg of lyophilized decoction (corresponding to 9.6 and 11.9) ml of decoction 1 and 2 liquid/kg), verifying the effect on the loss of straightening induced by the intraperitoneal injection of ethanol (4 g/kg). The parameters evaluated were the increase in the latency phase between the ethanol injection and the loss of the straightening reflex, and the duration of the loss of the straightening reflex (interval between the loss and the re-acquisition of the straightening reflex). As a reference compound, caffeine was used at a dose of 60 mg/kg (corresponding to an average dose of coffee equal to about 40 ml/kg).

[2] = Antioxidant activity: decoloring test of the cationic radical ABTS•+; conditions: mg lyophilized preparation per ml; absorbance at 734 nm; four determinations
Protocol: Biol. Med. 26: 1231, 1999) and by testing the neutralization of the radical 1,1-diphenyl-2-picrylhydrazyl (DPPH^•) (Brand-Williams et al.—Food Sci. Technol. 28: 25, 1995). […] (Yacoubi et al. —Neuropharmacology 45: 977, 2003). The antioxidant activity was evaluated according to the method reported by Re and collaborators (Re et al.—Free Rad. Biol. Med. 26: 1231, 1999). […] In the presence of an antioxidant the ABTS^•+ is reduced to colorless ABTS, determining a decoloring of the solution in which it is dissolved, which can be measured by spectrophotometry quantifying the absorbance at 734 nm. […] The antioxidant activity, expressed as IC50, was compared to that of Trolox, a similar water-soluble to vitamin E, and to that of an infusion of green tea, prepared with 10 g of leaves in 1 liter of water (from which 4.385 g of lyophilized infusion were obtained). For every sample four determinations were carried out and the result was expressed as average±standard deviation of the analyses done. The values of IC50 were calculated on the basis of the linear regression of the straight lines that put the logarithm of the concentrations tested in relation to the reduction of the absorbance measured, using the appropriate function of an electronic spreadsheet. The in vivo data were analyzed according to the Student's t-test, accepting as significant the values of p<0.05. […]

[3] = mice, oral 30 min before ethanol 4 g/kg i.p., decoctions 120 mg/kg lyophilized, n = 10
[4] = mice, oral, decoctions 120 mg/kg, ethanol 4 g/kg i.p.

SMILES	reduction in the duration of the loss of the straightening reflex ([1]; given as positive reduction, decoctions 120 mg/kg) [%]	Duration Average ± E.S. (of the loss of the straightening reflex) [1, 3] [min]	Latency Average ± E.S. (between ethanol injection and loss of the straightening reflex) [1, 3] [s]	Duration Difference (%) with respect to the controls [1, 4] [%]	Latency Difference (%) with respect to the controls (increase in the latency period) [1, 4] [%]	Lyophilized Decoction IC50 Average ± D.S. (antioxidant activity, ABTS) [2] [µg/mL]
Cn1c(=O)c2c(ncn2C)n(C)c1=O [Caffeine, caffeine]	43	23.5 ± 3.3	215.7 ± 18.2	−43	48	–
Cc1c(C)c2c(c(C)c1O)CCC(C)(C(=O)O)O2 (stereo not drawn) [Trolox]	–	–	–	–	–	30

Reference: US20170080040A1, “DECOCTION OF OLIVE LEAVES” (priority 2014, published 2017)
